According to US8623429B2, “Stabilized anthocyanin compositions” (Omnica GmbH, priority 2007, dated 2014):

Key:
Type in all cases: physicochemical
[1] = Example 1: stability of bilberry extract anthocyanosides, 4 hours at 37° C., pH 7.0, with/without DHLA or GSH (HPLC)
Experimental: (0.048 mmol anthocyanosides expressed as cyanidin-3-O-glucoside) were added to a 100 ml flask and filled to volume with sodium phosphate buffer (5% [w/w], pH=7.0), and stirred until dissolution was complete. A 1 ml sample was taken immediately and acidified with formic acid to pH=1.0 and analyzed by HPLC for the content of anthocyanosides (Fresh Sample). The remaining solution was kept for 4 hours at 37° C. (water bath) with stirring. Thereafter another sample (Blank sample), representing unprotected degradation, was taken and acidified.
(0.048 mmol expressed as cyanidin-3-O-glucoside) were then added and the flask was filled to volume with sodium phosphate buffer (5% [w/w], pH=7.0) and kept for 4 hours at 37° C. (water bath) with stirring.
Quantitation: External standardization based on linear regression analysis. The response factors of all anthocyanosides separated is quantitified against cyanidin-3-O-glucoside.
Test solutions from incubation experiments (with/without cells and with/without stabilizing agents) were used for analysis after stabilization of anthocyanosides with formic acid. Samples were cleared by filtration prior to injection on to HPLC-system.

[2] = Example 2: degradation over time of selected bilberry anthocyanosides at 37° C., pH 7.0, with/without GSH (HPLC); conditions: pH 7.0, 37° C.; for %-residual anthocyanosides (% left): 4.30 hours
Experimental: Sample a) 60 mg bilberry extract [37% anthocyanosides] (0.048 mmol expressed as cyanidin-3-O-glucoside) were added to a 100 ml, filled to volume with sodium phosphate buffer (5% [w/w], pH=7.0) and stirred until dissolution was complete. A 1 ml sample was immediately taken and acidified with formic acid to pH=1.0 and analyzed by HPLC for the content of anthocyanosides. The remaining solution was kept at 37° C. (water bath) with stirring and additional 1 ml samples (Blank Samples), representing unprotected degradation, were sampled every 15 minutes. The samples were analyzed for selected anthocyanosides by HPLC.
Sample b) 20 mg reduced L-glutathione (0.065 mmol) were added to a 100 ml flask with 60 ml sodium phosphate buffer (5% [w/w], pH=7.0) and stirred until dissolution was complete. 60 mg bilberry extract [37% anthocyanosides] (0.048 mmol expressed as cyanidin-3-O-glucoside) were added and the flask was filled to volume with sodium phosphate buffer (5% [w/w], pH=7.0) and kept at 37° C. (water bath) with stirring. Every 15 minutes, 1 ml samples were taken and analyzed for selected anthocyanosides by HPLC.
Samples were prepared as outlined below in HPLC Analytical Method. Test stability samples were immediately acidified (to block degradation) and injected undiluted following the detailed description provided below.
HPLC Analytical Method (Materials, Instruments and Methods): […]

[3] = Example 9: stability of bilberry extract anthocyanosides, 4 hours at 37° C., pH 7.0, with/without L-cysteine
Experimental: Sample a) 60 mg bilberry extract [37% anthocyanosides] (0.048 mmol anthocyanosides expressed as cyanidin-3-O-glucoside) were added to a 100 ml flask with 60 ml sodium phosphate buffer (5% [w/w], pH=7.0), and stirred until dissolution was complete. A 1 ml sample was taken immediately and acidified with formic acid to pH=1.0 and analyzed by HPLC for the content of anthocyanosides (Fresh Sample). The remaining solution was kept for 4 hours at 37° C. (water bath) with stirring. Thereafter another sample (Blank sample), representing unprotected degradation, was taken and acidified.
Sample b) 20 mg L-cysteine […] were added to a 100 ml flask with 60 ml sodium phosphate buffer (5% [w/w], pH=7.0) and stirred until dissolution was complete. 60 mg bilberry extract [37% anthocyanosides] (0.048 mmol expressed as cyanidin-3-O-glucoside) were then added to the flask and stir to fully dissolve, then kept for 4 hours at 37° C. (water bath) with stirring.
After 4 hours, samples were taken and acidified immediately with formic acid to pH=1.0 and analyzed by HPLC for the content of anthocyanosides. Degradation is expressed as decrease in peak area of individual peaks (calculated as % left after 4 hours).
Samples were prepared as outlined above in the HPLC Analytical Method. Test stability samples were immediately acidified (to block degradation) and injected undiluted following the detailed description provided below.

[4] = Cyanidin-3-O-galactoside at pH 3.1 or 7.0 with/without DHLA, 25° C. over 3 days (HPLC)
Experimental: Cyanidn-3-O-Galactoside (0.001 molar solution) was dissolved at pH=3.1 or pH=7.0 each with/without DHLA (1.44 mmolar solution). Replicate incubations were followed at 25° C. over 3 days by HPLC.

[5] = 20 mg reduced L-glutathione, pH 7.0, 37° C., 4 hours
[6] = 30 mg dihydrolipoic acid, pH 7.0, 37° C., 4 hours
[7] = unprotected, pH 7.0, 37° C., 4 hours

## OC[C@H]1O[C@@H](Oc2cc3c(O)cc(O)cc3[o+]c2-c2ccc(O)c(O)c2)[C@H](O)[C@@H](O)[C@H]1O [Cn-3O-Gal, Cyanidin-3-O-galactoside]
[1]; [5]
  % left, GSH (4 hours): 77.3%
  Peak Area, GSH (4 hours): 360.2
[1]; [6]
  % left, DHLA (4 hours): 64.5%
  Peak Area, DHLA (4 hours): 300.3
[1]; bilberry extract 60 mg/100 ml sodium phosphate buffer pH 7.0, fresh sample
  Peak Area, Fresh (0 hours): 465.8
[1]; [7]
  % left, Blank (4 hours): 41.0%
  Peak Area, Blank (4 hours): 191.1
[2]; Blank Sample, 1:15 h
  Peak Area: 305.40
[2]; Blank Sample, 4:15 h
  Peak Area: 300.50
[2]; Blank Sample, 4:30 h
  Peak Area: 205.36
[2]; Blank sample, 0:00 h
  Peak Area: 498.85
[2]; Blank sample, 0:15 h
  Peak Area: 390.37
[2]; Blank sample, 0:30 h
  Peak Area: 433.94
[2]; Blank sample, 0:45 h
  Peak Area: 347.29
[2]; Blank sample, 1:00 h
  Peak Area: 380.25
[2]; Blank sample, 1:45 h
  Peak Area: 353.94
[2]; Blank sample, 2:00 h
  Peak Area: 337.90
[2]; Blank sample, 2:15 h
  Peak Area: 320.70
[2]; Blank sample, 2:30 h
  Peak Area: 271.19
[2]; Blank sample, 2:45 h
  Peak Area: 274.22
[2]; Blank sample, 3:00 h
  Peak Area: 324.58
[2]; Blank sample, 3:15 h
  Peak Area: 324.25
[2]; Blank sample, 3:30 h
  Peak Area: 281.19
[2]; Blank sample, 4:00 h
  Peak Area: 315.54
[2]; Blank
  %-residual anthocyanosides (% left): 41%
[2]; GSH Protected Sample (20 mg), 0:30 h
  Peak Area: 470.61
[2]; GSH Protected Sample (20 mg), 1:30 h
  Peak Area: 431.86
[2]; GSH Protected Sample (20 mg), 2:30 h
  Peak Area: 390.23
[2]; GSH Protected Sample (20 mg), 3:30 h
  Peak Area: 422.54
[2]; GSH Protected Sample (20 mg), 4:30 h
  Peak Area: 420.37
[2]; GSH Protected Sample (20 mg), 4:45 h
  Peak Area: 393.21
[2]; GSH protected sample (20 mg), 0:00 h
  Peak Area: 508.09
[2]; GSH protected sample (20 mg), 0:15 h
  Peak Area: 504.88
[2]; GSH protected sample (20 mg), 0:45 h
  Peak Area: 425.89
[2]; GSH protected sample (20 mg), 1:00 h
  Peak Area: 462.71
[2]; GSH protected sample (20 mg), 1:15 h
  Peak Area: 452.17
[2]; GSH protected sample (20 mg), 1:45 h
  Peak Area: 442.86
[2]; GSH protected sample (20 mg), 2:00 h
  Peak Area: 436.19
[2]; GSH protected sample (20 mg), 2:15 h
  Peak Area: 442.30
[2]; GSH protected sample (20 mg), 2:45 h
  Peak Area: 422.32
[2]; GSH protected sample (20 mg), 3:00 h
  Peak Area: 433.21
[2]; GSH protected sample (20 mg), 3:15 h
  Peak Area: 425.54
[2]; GSH protected sample (20 mg), 3:45 h
  Peak Area: 397.72
[2]; GSH protected sample (20 mg), 4:00 h
  Peak Area: 446.42
[2]; GSH protected sample (20 mg), 4:15 h
  Peak Area: 419.80
[2]; GSH-protected
  %-residual anthocyanosides (% left): 77%
[2]; GSH-protected, listed as cyanidin-3-O-galactose
  %-residual anthocyanosides (% left): 77%
[3]; bilberry extract 60 mg in buffer pH 7.0, fresh sample
  Peak Area, Fresh solution: 465.8
[3]; pH 7.0, 37° C., 4 hours
  % left, L-cysteine 20 mg: 77.3%
  Peak Area, L-cysteine 20 mg: 360.2
[3]; [7]
  % left, Blank: 41.0%
  Peak Area, Blank: 191.1
[4]; pH 3.1, 25° C., in presence of DHLA (1.44 mmolar)
  recovered after 3 days: 95%
[4]; pH 3.1, 25° C., unprotected sample
  recovered after 3 days: 61%
[4]; pH 7.0, 25° C., in presence of DHLA (1.44 mmolar)
  recovered after 3 days: about 47%
[4]; pH 7.0, 25° C., unprotected sample
  recovered after 3 days: ~0%
